From patent US7384959B2, “Treatment of convulsive states” (priority 1999, dated 2008)
Marks after values point to notes of the source that are not given here.

Experiments:
mouse = test: liver damage (plasma alanine aminotransferase, microscopic examination for hepatic necrosis); format: in vivo
Method: At very high doses, some inhibition of cytochrome P450 sub-types C8/9, 2C18/19 and 2D6 was found, but the concentrations required to inhibit enzyme activities (100 μM) were much greater than the maximum concentrations likely to be found in vivo and are therefore not likely to be clinically relevant.

rat = test: Pentylenetetrazole (PTZ) Seizure Test; format: in vivo; details: for NUMBER OF CLONIC CONVULSIONS number of rats / NUMBER OF DEATHS number of rats / NUMBER OF TONIC CONVULSIONS number of rats: 10 rats per group; for NUMBER OF CLONIC CONVULSIONS number of rats / NUMBER OF DEATHS number of rats / NUMBER OF TONIC CONVULSIONS number of rats / NUMBER OF CLONIC CONVULSIONS % antagonism / NUMBER OF DEATHS % antagonism / NUMBER OF TONIC CONVULSIONS % antagonism: observed during 60 minutes; for LATENCY TO CLONIC CONVULSIONS % change from control / LATENCY TO CLONIC CONVULSIONS mean ± s.e.m. / LATENCY TO DEATHS % change from control / LATENCY TO DEATHS mean ± sem. / LATENCY TO TONIC CONVULSIONS % change from control / LATENCY TO TONIC CONVULSIONS mean ± sem.: rat; for anticonvulsant activity in the PTZ Seizure Test: animal model, delivered subcutaneously
Source text: The following Tables report the results of the Irwin, PTZ and barbital interaction (sleep induction) tests. Description of these tests may be found in Psychopharmacologica, 13:222-257 (1968), Krall et al, Epilepsia 19:409-428 (1978), and Simon et al, J. Pharmacol, Paris 13:241-252 (1982). See also Roux et al, Phoenix international Pharmacology Reports Nos. D30.2061/2 and D99.021/2.
Table 2a reports mean results based on animals showing the symptoms (minimum=3 animals). Table 2b reports results observed during 60 minutes. In these Tables: Student's t Test: NS=Not Significant; *=p<0.05; ** p<0.01; ***=p<0.001 Fisher's Exact Test: No indication=Not Significant; **=p<0.01; ***=p<0.001

COC(=O)[C@@H](c1ccccc1)[C@@H]1CCCCN1 [l-MPH, l-threo-Methylphenidate]
liver damage as assessed by increased plasma level of alanine aminotransferase and microscopic examination for hepatic necrosis (mouse): not to be linked with liver damage
NUMBER OF CLONIC CONVULSIONS number of rats (rat; 8 mg/kg s.c. −30 min): 10
NUMBER OF DEATHS number of rats (rat; 8 mg/kg s.c. −30 min): 10
NUMBER OF TONIC CONVULSIONS number of rats (rat; 8 mg/kg s.c. −30 min): 10
NUMBER OF CLONIC CONVULSIONS % antagonism (rat; 8 mg/kg s.c. −30 min): 0%
NUMBER OF DEATHS % antagonism (rat; 8 mg/kg s.c. −30 min): 0%
NUMBER OF TONIC CONVULSIONS % antagonism (rat; 8 mg/kg s.c. −30 min): 0%
LATENCY TO CLONIC CONVULSIONS % change from control (rat; 8 mg/kg s.c. −30 min): +38%
LATENCY TO CLONIC CONVULSIONS mean ± s.e.m. (rat; 8 mg/kg s.c. −30 min): 756.0 ± 105.0 NS sec
LATENCY TO DEATHS % change from control (rat; 8 mg/kg s.c. −30 min): +20%
LATENCY TO DEATHS mean ± sem. (rat; 8 mg/kg s.c. −30 min): 1566.1 ± 199.9 NS sec
LATENCY TO TONIC CONVULSIONS % change from control (rat; 8 mg/kg s.c. −30 min): +23%
LATENCY TO TONIC CONVULSIONS mean ± sem. (rat; 8 mg/kg s.c. −30 min): 1443.0 ± 198.2 NS sec
NUMBER OF CLONIC CONVULSIONS number of rats (rat; 16 mg/kg s.c. −30 min): 9
NUMBER OF DEATHS number of rats (rat; 16 mg/kg s.c. −30 min): 7
NUMBER OF TONIC CONVULSIONS number of rats (rat; 16 mg/kg s.c. −30 min): 8
NUMBER OF CLONIC CONVULSIONS % antagonism (rat; 16 mg/kg s.c. −30 min): 10%
NUMBER OF DEATHS % antagonism (rat; 16 mg/kg s.c. −30 min): 30%
NUMBER OF TONIC CONVULSIONS % antagonism (rat; 16 mg/kg s.c. −30 min): 20%
LATENCY TO CLONIC CONVULSIONS % change from control (rat; 16 mg/kg s.c. −30 min): +99%
LATENCY TO CLONIC CONVULSIONS mean ± s.e.m. (rat; 16 mg/kg s.c. −30 min): 1086.7 ± 213.6* sec
LATENCY TO DEATHS % change from control (rat; 16 mg/kg s.c. −30 min): +35%
LATENCY TO DEATHS mean ± sem. (rat; 16 mg/kg s.c. −30 min): 1757.1 ± 209.8* sec
LATENCY TO TONIC CONVULSIONS % change from control (rat; 16 mg/kg s.c. −30 min): +53%
LATENCY TO TONIC CONVULSIONS mean ± sem. (rat; 16 mg/kg s.c. −30 min): 1785.0 ± 292.2* sec
NUMBER OF CLONIC CONVULSIONS number of rats (rat; 32 mg/kg s.c. −30 min): 10
NUMBER OF DEATHS number of rats (rat; 32 mg/kg s.c. −30 min): 3++
NUMBER OF TONIC CONVULSIONS number of rats (rat; 32 mg/kg s.c. −30 min): 3++
NUMBER OF CLONIC CONVULSIONS % antagonism (rat; 32 mg/kg s.c. −30 min): 0%
NUMBER OF DEATHS % antagonism (rat; 32 mg/kg s.c. −30 min): 70%
NUMBER OF TONIC CONVULSIONS % antagonism (rat; 32 mg/kg s.c. −30 min): 70%
LATENCY TO CLONIC CONVULSIONS % change from control (rat; 32 mg/kg s.c. −30 min): +226%
LATENCY TO CLONIC CONVULSIONS mean ± s.e.m. (rat; 32 mg/kg s.c. −30 min): 1782.0 ± 161.7*** sec
LATENCY TO DEATHS % change from control (rat; 32 mg/kg s.c. −30 min): +150%
LATENCY TO DEATHS mean ± sem. (rat; 32 mg/kg s.c. −30 min): 3260.0 ± 121.7*** sec
LATENCY TO TONIC CONVULSIONS % change from control (rat; 32 mg/kg s.c. −30 min): +162%
LATENCY TO TONIC CONVULSIONS mean ± sem. (rat; 32 mg/kg s.c. −30 min): 3070.0 ± 164.6*** sec
anticonvulsant activity in the PTZ Seizure Test (rat): has anticonvulsant potential
anticonvulsant activity in the PTZ Seizure Test (rat; listed as l-enantiomer): possess anticonvulsant activity
